Where two headings read alike, the source gives them in different places.

One assay concerns pERK in AsPC-1 cells. The assay is described as follows: ERK phosphorylation cell assay, AsPC-1. The assay is classed as cell-based. The conditions noted are these: read-out: pERK AsPC-1_IC50. The method, then: [Worded in the source for another cell line; this cell line is reported under the same test.] (§1) • Day 1: AGS cells were seeded into a 384-well cell culture plate and incubated overnight at 37° C. with 5% CO2 in a cell culture incubator. • Day 2: Compounds were added to the plate using an Echo550 liquid handler, followed by incubation at 37° C. with 5% CO2 in a cell culture incubator for 3 hours. Subsequently, the cells were fixed with paraformaldehyde, permeabilized with methanol, and blocked with blocking buffer. A primary antibody mixture (rabbit anti-pERK, mouse anti-GAPDH) was added, and the plate was incubated overnight at 4° C. • Day 3: The primary antibodies were removed, and a secondary antibody mixture (goat anti-rabbit 800CW, goat anti-mouse 680RD) was added. The plate was incubated at room temperature in the dark. After three washes with PBST, the plate was inverted and centrifuged for 1 minute. Fluorescence signal values were read using an Odyssey CLx imaging system.
(§2) [formula] • Negative control: DMSO • Positive control: 10 μM Reference • Fitted using XLFit 5.0 with the following parameters:
(§3) [formula] • X: Log of compound concentration • Y: Mean relative expression levels of p-ERK across replicates

The subject of another assay is pERK in AGS cells. The assay is described as follows: ERK phosphorylation cell assay, AGS. The assay is classed as cell-based. The conditions noted are these: 3 hours compound incubation, read-out: pERK AGS_IC50. The method, then: as §1, §2, §3
Setting [1] is: Homo sapiens, ASPC1, AsPC-1 cells.

For the compound `CC1(O)CCCN(c2nc(OCC(F)(F)F)nc3c(F)c4c(cc23)NCCCCCc2c(F)ccc3cc(O)cc-4c23)C1` [Example 17B, (R)-3,15-difluoro-11-(3-hydroxy-3-methylpiperidin-1-yl)-13-(2,2,2-trifluoroethoxy)-4,5,6,7,8,9-hexahydro-naphtho[1′,8′:4,5,6111]azacycloundecino[2,3-g]quinazoline-17-ol], the IC50 in the assay with pERK in AsPC-1 cells (AsPC-1 cells) and with pERK in AGS cells was above 10 µM in each case.

Regarding `Oc1cc2c3c(c(F)ccc3c1)CCCCNc1cc3c(N4CC5CCC(C4)N5)nc(OC[C@@]45CCCN4C[C@H](F)C5)nc3c(F)c1-2` [Example 2, 10-((1R,5S)-3,8-Diazabicyclo[3.2.1]octan-3-yl)-3,14-difluoro-12-(((2R,7aS)-2-fluorotetrahydro-1H-pyrazin-7a(5H)-yl)methoxy)-5,6,7,8-tetrahydro-4H-naphtho[1′,8′:4,5,6]acridin[2,3-g]quinazolin-16-ol], the IC50 in the assay with pERK in AsPC-1 cells (setting [1]) is 0.71 µM; in the assay with pERK in AGS cells (Homo sapiens, AGS, 3 h) it was 0.154 µM.

As to `C[C@@]1(O)CCCN(c2nc(OCC34CCC(CC3)OC4)nc3c(F)c4c(cc23)NCCCCCc2c(F)ccc3cc(O)cc-4c23)C1` [Example 19], the IC50 was above 10 µM in the assay on pERK in AsPC-1 cells (setting [1]) and above 10 µM in the assay with pERK in AGS cells (Homo sapiens, AGS, 3 h).

`C=C1CN2CC(F)(F)CC2(COc2nc(N3CCC[C@@](C)(O)C3)c3cc4c(c(F)c3n2)-c2cc(O)cc3ccc(F)c(c23)CCCCCN4)C1` (single isomer, unassigned) [Example 57B]: the IC50 in the assay with pERK in AsPC-1 cells (AsPC-1 cells) and with pERK in AGS cells was above 10 µM each time.

`O=C1CCCCCc2c(F)ccc3cc(O)cc(c23)-c2c(cc3c(N4CC5CCC(C4)N5)nc(OC[C@@]45CCCN4C[C@H](F)C5)nc3c2F)N1` [Example 9A, 12-((1R,5S)-3,8-diazabicyclo[3.2.1]octan-3-yl)-3,16-difluoro-14-(((2R,7aS)-2-fluorotetrahydro-1H-pyrazin-7a(5H)-yl)methoxy)-18-hydroxy-5,6,7,8-tetrahydro-4H-naphtho[1′,8′:4,5,6][1]azacyclododecino[2,3-g]quinazolin-9(10H)-one]: the IC50 with pERK in AsPC-1 cells (AsPC-1 cells) is 1.96 µM; in the assay on pERK in AGS cells, 0.687 µM.

As for `C=C1CN2CC(=C)CC2(COc2nc(N3CCC[C@@](C)(O)C3)c3cc4c(c(F)c3n2)-c2cc(O)cc3ccc(F)c(c23)CCCCCN4)C1` [Example 31], the IC50 in the assay on pERK in AsPC-1 cells (setting [1]) came to 0.225 µM; with pERK in AGS cells (Homo sapiens, AGS, 3 h), 0.136 µM.

On to `O=C1CCCc2c(F)ccc3cc(O)cc(c23)-c2c(cc3c(N4CC5CCC(C4)N5)nc(OC[C@@]45CCCN4C[C@H](F)C5)nc3c2F)N1` [Example 1, 10-((1R,5S)-3,8-Diazabicyclo[3.2.1]octan-3-yl)-3,14-difluoro-12-(((2R,7aS)-2-fluorotetrahydro-1H-pyrazin-7a(5H)-yl)methoxy)-16-hydroxy-5,6-dihydro-4H-naphtho[1′,8′:4,5,6]acridin[2,3-g]quinazolin-7(8H)-one], for which the IC50 with pERK in AsPC-1 cells (setting [1]) came to 2.45 µM; in the assay with pERK in AGS cells (Homo sapiens, AGS, 3 h) it was 2.15 µM.

Regarding `C[C@@]1(O)CCCN(c2nc(OCC34CCCN3CC(=C(F)F)C4)nc3c(F)c4c(cc23)NCCCCCc2c(F)ccc3cc(O)cc-4c23)C1` (some centres unmarked) [Example 29], the IC50 in the assay on pERK in AsPC-1 cells (setting [1]) was 4.53 µM; in the assay on pERK in AGS cells (Homo sapiens, AGS, 3 h), 5.42 µM.

`C[C@@]1(O)CCCN(c2nc(OCC(F)(F)F)nc3c(F)c4c(cc23)NCCCCCc2c(F)ccc3cc(O)cc-4c23)C1` [Example 17A, (R)-3,15-difluoro-11-(3-hydroxy-3-methylpiperidin-1-yl)-13-(2,2,2-trifluoroethoxy)-4,5,6,7,8,9-hexahydro-naphtho[1′,8′:4,5,6111]azacycloundecino[2,3-g]quinazoline-17-ol]: the IC50 is above 10 µM in the assay on pERK in AsPC-1 cells (setting [1]) and 5.27 µM with pERK in AGS cells (Homo sapiens, AGS, 3 h).

Regarding “13-((2,2-difluoro-6-methylenetetrahydro-1H-pyrazin-7a(5H)-yl)methoxy)-3,15-difluoro-11-((R)-3-hydroxy-3-methylpiperidin-1-yl)-4,5,6,7,8,9-hexahydronaphtho[1′,8′:4,5,6][1]azacycloundecano[2,3-g]quinazolin-17-ol [Example 38]”, the IC50 in the assay with pERK in AsPC-1 cells (AsPC-1 cells) and in the assay on pERK in AGS cells was above 10 µM in each case.

As to `C[C@@]1(O)CCCN(c2nc(OCC34CCCN3C3CC3C4)nc3c(F)c4c(cc23)NCCCCCc2c(F)ccc3cc(O)cc-4c23)C1` (stereo partly drawn) [Example 37, 3,15-Difluoro-13-((hexahydrocyclopropano[b]pyrrolizin-5a(3H)-yl)methoxy)-11-((R)-3-hydroxy-3-methylpiperidin-1-yl)-4,5,6,7,8,9-hexahydro-naphtho[1′,8′:4,5,6][1]azacycloundecino[2,3-g]quinazoline-17-ol], the IC50 with pERK in AsPC-1 cells (setting [1]) came to 3.51 µM; in the assay with pERK in AGS cells (Homo sapiens, AGS, 3 h), 0.546 µM.

Turning to `O=C1CCCCCCCCc2c(F)ccc3cc(O)cc(c23)-c2c(cc3c(N4CC5CCC(C4)N5)nc(OCC45CCCN4CC(F)C5)nc3c2F)N1` [Example 10, 15-((1R,5S)-3,8-diazabicyclo[3.2.1]octan-3-yl)-3,19-difluoro-17-(((2R,7aS)-2-fluorotetrahydro-1H-pyrazin-7a(5H)-yl)methoxy)-21-hydroxy-4,5,6,7,8,9,10,11-octahydronaphtho[1′,8′:4,5,6][1]azacyclopentadecano[2,3-g]quinazolin-12(13H)-one], the IC50 in the assay on pERK in AsPC-1 cells (AsPC-1 cells) and in the assay with pERK in AGS cells was above 10 µM in each case.

Take `O=C1NCCCCCc2c(F)ccc3cc(O)cc(c23)-c2c1cc1c(N3CC4CCC(C3)N4)nc(OC[C@@]34CCCN3C[C@H](F)C4)nc1c2F` [Example 14, 12-((1R,5S)-3,8-diazabicyclo[3.2.1]oct-3-yl)-3,16-difluoro-14-(((2R,7aS)-2-fluorotetrahydro-1H-pyrazin-7a(5H)-yl)methoxy)-18-hydroxy-4,5,6,7,8,9-hexahydro-10H-naphtho[1′,8′:5,6,7][1]azacyclododecano[3,4-g]quinazolin-10-one]: the IC50 was 3.84 µM in the assay with pERK in AsPC-1 cells (setting [1]) and 2.77 µM in the assay with pERK in AGS cells (Homo sapiens, AGS, 3 h).

As to `COC12CCC(COc3nc(N4CCC[C@@](C)(O)C4)c4cc5c(c(F)c4n3)-c3cc(O)cc4ccc(F)c(c34)CCCCCN5)(CC1)CC2` [Example 20A], the IC50 with pERK in AsPC-1 cells (setting [1]) was above 10 µM; in the assay with pERK in AGS cells (Homo sapiens, AGS, 3 h) it was above 10 µM.

Consider `C[C@@]1(O)CCCN(c2nc(OCC34CCCN3CCC4)nc3c(F)c4c(cc23)NCCCCCc2c(F)ccc3cc(O)cc-4c23)C1` (single isomer, unassigned) [Example 21B], for which the results for the IC50 with pERK in AsPC-1 cells (AsPC-1 cells) and in the assay with pERK in AGS cells were 4.62 µM and 0.517 µM, respectively.

As for `C[C@@]1(O)CCCN(c2nc(OC[C@@]34CCCN3C[C@H](F)C4)nc3c(F)c4c(cc23)NCCOCCc2c(F)ccc3cccc-4c23)C1` (single isomer, unassigned) [Example 52A], the IC50 in the assay on pERK in AsPC-1 cells (AsPC-1 cells) amounted to 3.1 µM; in the assay with pERK in AGS cells, 2 µM.

In the case of `CC1(O)CCCN(c2nc(OCC34CCC(CC3)CO4)nc3c(F)c4c(cc23)NCCCCCc2c(F)ccc3cc(O)cc-4c23)C1` [Example 18B, (R)-13-(((2-oxabicyclo[2.2.2]octan-1-yl)methoxy)-3,15-difluoro-11-(3-hydroxy-3-methylpiperidin-1-yl)-4,5,6,7,8,9-hexahydro-naphtho[1′,8′:4,5,6][1]azacycloundecino[2,3-g]quinazoline-17-ol], the IC50 in the assay with pERK in AsPC-1 cells (AsPC-1 cells) and in the assay with pERK in AGS cells was above 10 µM each time.

With `C[C@@]1(O)CCCN(c2nc(OCC34CCCN3C[C@]3(C4)CC3(F)F)nc3c(F)c4c(cc23)NCCCCCc2c(F)ccc3cc(O)cc-4c23)C1` (single isomer, unassigned) [Example 24B], the values for the IC50 in the assay on pERK in AsPC-1 cells (AsPC-1 cells) and with pERK in AGS cells were 7.18 µM and 1.92 µM, respectively.

Take `C=C1CN2CCC[C@@]2(COc2nc(N3CCC[C@@](C)(O)C3)c3cc4c(c(F)c3n2)-c2cc(OC(=O)CCCCCCCCC)cc3ccc(F)c(c23)CCOCCN4C)C1` [Example 51, 3,15-difluoro-11-((R)-3-hydroxy-3-methylpiperidin-1-yl)-9-methyl-13-(((S)-2-methylenetetrahydro-1H-pyrazin-7a(5H)-yl)methoxy)-4,5,8,9-tetrahydro-7H-naphtho[1′,8′:7,8,9111]oxa[4]azacycloundeca[5,6-g]quinazoline-17-yl decanoate]: the IC50 came out at 0.0061 µM in the assay on pERK in AsPC-1 cells (setting [1]) and 0.0024 µM in the assay with pERK in AGS cells (Homo sapiens, AGS, 3 h).

`C=C1CN2CCC[C@@]2(COc2nc(N3CCC[C@@](C)(O)C3)c3cc4c(c(F)c3n2)-c2cc(O)cc3ccc(F)c(c23)CCOCCN4)C1` (single isomer, unassigned) [Example 42C]: the IC50 in the assay with pERK in AsPC-1 cells (AsPC-1 cells) came to 0.101 µM.

As to `C=C1CN2CCC[C@@]2(COc2nc(N3CCC[C@@](C)(O)C3)c3cc4c(c(F)c3n2)-c2cccc3ccc(F)c(c23)CCOCCN4)C1` [Example 53, (R)-1-(3,15-difluoro-13-(((S)-2-methylenetetrahydro-1H-pyrazin-7a(5H)-yl)methoxy)-4,5,8,9-tetrahydro-7H-naphtho[1′,8′:7,8,9][1]oxa[4]azacycloundeca[5,6-g]quinazoline-11-yl)-3-methylpiperidin-3-ol], the IC50 in the assay on pERK in AsPC-1 cells (setting [1]) was found to be 3.3 µM; in the assay with pERK in AGS cells (Homo sapiens, AGS, 3 h), 2.18 µM.

Take `C=C1CN2CC(F)(F)CC2(COc2nc(N3CCC[C@@](C)(O)C3)c3cc4c(c(F)c3n2)-c2cc(O)cc3ccc(F)c(c23)CCCCCN4)C1` (single isomer, unassigned) [Example 57A]: the IC50 in the assay with pERK in AsPC-1 cells (setting [1]) was above 10 µM; in the assay with pERK in AGS cells it was 1.14 µM.

For `O=C1CCCc2c(F)ccc3cc(O)cc(c23)-c2c(cc3c(N4CC5CCC(C4)N5)nc(OCC(F)(F)F)nc3c2F)N1` [Example 15, 10-((1R,5S)-3,8-diazabicyclo[3.2.1]octan-3-yl)-3,14-difluoro-16-hydroxy-12-(2,2,2-trifluoroethoxy)-5,6-dihydro-4H-naphtho[1′,8′:4,5,6]azacycloundecino[2,3-g]quinazolin-7(8H)-one], the IC50 with pERK in AGS cells (Homo sapiens, AGS, 3 h) is above 10 µM.

(Values after patent US20260049089A1, “KRAS INHIBITOR COMPOUND” (SHANGHAI APEIRON THERAPEUTICS COMPANY LIMITED, priority 2022, published 2026).)
